Laboratory results taken from patent US20220033397A1, “PHARMACEUTICAL COMPOUNDS AND THEIR USE AS INHIBITORS OF UBIQUITIN SPECIFIC PROTEASE 19 (USP19)” (ALMAC DISCOVERY LIMITED, priority 2018, published 2022).

Target: T1, Full-length USP19 (Homo sapiens, UniProt O94966)
T1 construct: Full-length USP19 was purchased from Boston Biochem (E-576); purchased Boston Biochem E-576
T1 sequence (O94966 1-1318): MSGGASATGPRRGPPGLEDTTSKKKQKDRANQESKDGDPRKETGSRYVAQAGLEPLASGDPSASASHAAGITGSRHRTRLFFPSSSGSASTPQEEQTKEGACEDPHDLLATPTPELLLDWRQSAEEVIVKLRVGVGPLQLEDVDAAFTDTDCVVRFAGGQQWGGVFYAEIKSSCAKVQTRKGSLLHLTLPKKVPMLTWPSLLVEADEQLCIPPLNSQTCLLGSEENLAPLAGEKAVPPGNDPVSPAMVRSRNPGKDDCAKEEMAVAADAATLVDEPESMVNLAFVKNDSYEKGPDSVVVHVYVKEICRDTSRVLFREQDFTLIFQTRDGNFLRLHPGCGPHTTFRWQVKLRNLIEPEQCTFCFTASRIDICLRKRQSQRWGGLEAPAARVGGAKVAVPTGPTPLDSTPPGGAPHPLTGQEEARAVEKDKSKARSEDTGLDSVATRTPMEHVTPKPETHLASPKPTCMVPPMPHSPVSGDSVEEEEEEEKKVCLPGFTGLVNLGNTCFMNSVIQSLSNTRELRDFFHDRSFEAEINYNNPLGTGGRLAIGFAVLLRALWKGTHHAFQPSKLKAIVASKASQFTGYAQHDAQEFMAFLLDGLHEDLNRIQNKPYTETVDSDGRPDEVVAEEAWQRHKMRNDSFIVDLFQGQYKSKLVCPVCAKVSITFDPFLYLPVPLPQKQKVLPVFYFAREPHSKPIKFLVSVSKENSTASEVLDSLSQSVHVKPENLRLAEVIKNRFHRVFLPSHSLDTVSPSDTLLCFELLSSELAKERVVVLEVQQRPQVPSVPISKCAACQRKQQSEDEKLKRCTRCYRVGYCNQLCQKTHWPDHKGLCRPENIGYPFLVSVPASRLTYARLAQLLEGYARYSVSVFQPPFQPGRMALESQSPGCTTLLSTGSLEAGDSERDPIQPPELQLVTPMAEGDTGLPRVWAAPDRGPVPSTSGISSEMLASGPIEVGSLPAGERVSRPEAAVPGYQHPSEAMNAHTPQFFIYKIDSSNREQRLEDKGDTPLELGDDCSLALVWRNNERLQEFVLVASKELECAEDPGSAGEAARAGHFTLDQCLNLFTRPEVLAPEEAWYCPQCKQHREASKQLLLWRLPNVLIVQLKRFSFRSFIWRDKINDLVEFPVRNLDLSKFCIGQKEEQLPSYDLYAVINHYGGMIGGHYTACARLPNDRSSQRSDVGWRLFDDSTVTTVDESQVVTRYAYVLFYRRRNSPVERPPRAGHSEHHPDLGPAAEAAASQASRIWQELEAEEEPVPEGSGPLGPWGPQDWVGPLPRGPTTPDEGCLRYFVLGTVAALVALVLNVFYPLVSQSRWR
Experiment: USP19 fluorescence polarisation (FP) homogeneous assay with Ubiquitin-Lys-TAMRA substrate
Type: biochemical
Details: 2.5 nM USP19, 30 min pre-incubation, average of at least two duplicate experiments
Outline: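 Full-length USP19 preincubated 30 min at RT with inhibitor (200 μM to 2 μM series, 8–18 points) before adding 500 nM Ubiquitin-Lys-TAMRA substrate.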

Compound | IC50 [µM]
O=C(N1CCC(O)(Cn2cnc(-c3ccccc3)cc2=O)C2(CCCC2)C1)N1CCCC1C1CC1 (stereo not drawn) [Example 264, 3-((7-(2-Cyclopropylpyrrolidine-1-carbonyl)-10-hydroxy-7-azaspiro[4.5]decan-10-yl)methyl)-6-phenylpyrimidin-4(3H)-one] | 0.5 to 5
O=C(N1CCC(O)(Cn2cnc(-c3ccccc3)cc2=O)C2(CCCC2)C1)N1CCC[C@H]1c1ccon1 (stereo partly drawn) [Example 265, 3-((10-Hydroxy-7-((S)-2-(isoxazol-3-yl)pyrrolidine-1-carbonyl)-7-azaspiro[4.5]decan-10-yl)methyl)-6-phenylpyrimidin-4(3H)-one] | 0.5 to 5
CN(C)C(=O)[C@@H]1CCCN1C(=O)N1CCC(O)(Cn2cnc(-c3ccccc3)cc2=O)C2(CCCC2)C1 (stereo partly drawn) [Example 266, (2S)-1-(10-Hydroxy-10-((6-oxo-4-phenylpyrimidin-1(6H)-yl)methyl)-7-azaspiro[4.5]decane-7-carbonyl)-N,N-dimethylpyrrolidine-2-carboxamide] | 50 to 250
O=C(N1CCC(O)(Cn2cnc(-c3ccccc3)cc2=O)C2(CCCC2)C1)N1CCC[C@H]1Cc1cccs1 (stereo partly drawn) [Example 267, 3-((10-Hydroxy-7-((S)-2-(thiophen-2-ylmethyl)pyrrolidine-1-carbonyl)-7-azaspiro[4.5]decan-10-yl)methyl)-6-phenylpyrimidin-4(3H)-one] | 50 to 250
O=C(N1CCC(O)(Cn2cnc(-c3ccccc3)cc2=O)C2(CCCC2)C1)N1CCC[C@H]1c1ncn[nH]1 (stereo partly drawn) [Example 268, 3-((7-((S)-2-(1H-1,2,4-Triazol-5-yl)pyrrolidine-1-carbonyl)-10-hydroxy-7-azaspiro[4.5]decan-10-yl)methyl)-6-phenylpyrimidin-4(3H)-one] | 50 to 250
Cc1nc([C@@H]2CCCN2C(=O)N2CCC(O)(Cn3cnc(-c4ccccc4)cc3=O)C3(CCCC3)C2)n[nH]1 (stereo partly drawn) [Example 269, 3-((10-Hydroxy-7-((S)-2-(5-methyl-1H-1,2,4-triazol-3-yl)pyrrolidine-1-carbonyl)-7-azaspiro[4.5]decan-10-yl)methyl)-6-phenylpyrimidin-4(3H)-one] | 50 to 250
CC(C)c1coc([C@@H]2CCCN2C(=O)N2CCC(O)(Cn3cnc(-c4ccccc4)cc3=O)C3(CCCC3)C2)n1 (stereo partly drawn) [Example 270, 3-((10-Hydroxy-7-((S)-2-(4-isopropyloxazol-2-yl)pyrrolidine-1-carbonyl)-7-azaspiro[4.5]decan-10-yl)methyl)-6-phenylpyrimidin-4(3H)-one] | 50 to 250
COc1ccccc1C1CNCCN1C(=O)N1CCC(O)(Cn2cnc(-c3ccccc3)cc2=O)C2(CCCC2)C1 (stereo not drawn) [Example 271, 3-((10-Hydroxy-7-(2-(2-methoxyphenyl)piperazine-1-carbonyl)-7-azaspiro[4.5]decan-10-yl)methyl)-6-phenylpyrimidin-4(3H)-one] | 50 to 250
COc1cccc(C2CNCCN2C(=O)N2CCC(O)(Cn3cnc(-c4ccccc4)cc3=O)C3(CCCC3)C2)c1 (stereo not drawn) [Example 272, 3-((10-Hydroxy-7-(2-(3-methoxyphenyl)piperazine-1-carbonyl)-7-azaspiro[4.5]decan-10-yl)methyl)-6-phenylpyrimidin-4(3H)-one] | 5 to 50
COc1ccc(C2CNCCN2C(=O)N2CCC(O)(Cn3cnc(-c4ccccc4)cc3=O)C3(CCCC3)C2)cc1 (stereo not drawn) [Example 273, 3-((10-Hydroxy-7-(2-(4-methoxyphenyl)piperazine-1-carbonyl)-7-azaspiro[4.5]decan-10-yl)methyl)-6-phenylpyrimidin-4(3H)-one] | 5 to 50

The remaining lines, values ahead:

IC50 [µM] | Compound
0.5 to 5 | O=C(N1CCC(O)(Cn2cnc(-c3ccccc3)cc2=O)C2(CCCC2)C1)N1CCNCC1c1cccnc1 (stereo not drawn) [Example 274, 3-((10-Hydroxy-7-(2-(pyridin-3-yl)piperazine-1-carbonyl)-7-azaspiro[4.5]decan-10-yl)methyl)-6-phenylpyrimidin-4(3H)-one]
5 to 50 | O=C(N1CCC(O)(Cn2cnc(-c3ccccc3)cc2=O)C2(CCCC2)C1)N1CCNCC1C1CC1 (stereo not drawn) [Example 275, 3-((7-(2-Cyclopropylpiperazine-1-carbonyl)-10-hydroxy-7-azaspiro[4.5]decan-10-yl)methyl)-6-phenylpyrimidin-4(3H)-one]
5 to 50 | O=C(N1CCC(O)(Cn2cnc(-c3ccccc3)cc2=O)C2(CCCC2)C1)N1CCNCC1C1CCC1 (stereo not drawn) [Example 276, 3-((7-(2-Cyclobutylpiperazine-1-carbonyl)-10-hydroxy-7-azaspiro[4.5]decan-10-yl)methyl)-6-phenylpyrimidin-4(3H)-one]
50 to 250 | COCC1CNCCN1C(=O)N1CCC(O)(Cn2cnc(-c3ccccc3)cc2=O)C2(CCCC2)C1 (stereo not drawn) [Example 277, 3-((10-Hydroxy-7-(2-(methoxymethyl)piperazine-1-carbonyl)-7-azaspiro[4.5]decan-10-yl)methyl)-6-phenylpyrimidin-4(3H)-one]
< 0.5 | O=C(N1CC[C@@](O)(Cn2cnc(-c3ccccc3)cc2=O)C2(CCCC2)C1)N1CCNC[C@H]1c1ccccc1 [Example 278, 3-(((S)-10-Hydroxy-7-((R)-2-phenylpiperazine-1-carbonyl)-7-azaspiro[4.5]decan-10-yl)methyl)-6-phenylpyrimidin-4(3H)-one]
0.5 to 5 | CC(=O)N1CCN(C(=O)N2CC[C@@](O)(Cn3cnc(-c4ccccc4)cc3=O)C3(CCCC3)C2)[C@H](c2ccccc2)C1 [Example 279, 3-(((S)-7-((R)-4-Acetyl-2-phenylpiperazine-1-carbonyl)-10-hydroxy-7-azaspiro[4.5]decan-10-yl)methyl)-6-phenylpyrimidin-4(3H)-one]
< 0.5 | O=C(N1CCC(O)(Cn2ncc(-c3ccccc3)cc2=O)C2(CCCC2)C1)N1CCOC[C@H]1c1ccccc1 (stereo partly drawn) [Example 280, 2-((10-Hydroxy-7-((R)-3-phenylmorpholine-4-carbonyl)-7-azaspiro[4.5]decan-10-yl)methyl)-5-phenylpyridazin-3(2H)-one]
< 0.5 | CN1CCN(C(=O)N2CC[C@@](O)(Cn3cnc(-c4ccccc4)cc3=O)C3(CCCC3)C2)[C@H](c2ccccc2)C1 [Example 281, 3-(((S)-10-Hydroxy-7-((R)-4-methyl-2-phenylpiperazine-1-carbonyl)-7-azaspiro[4.5]decan-10-yl)methyl)-6-phenylpyrimidin-4(3H)-one]
< 0.5 | O=C(N1CC[C@@](O)(Cn2cnc(Cl)cc2=O)C2(CCCC2)C1)N1CCOC[C@H]1c1ccc(F)cc1 [Example 282, 6-Chloro-3-(((S)-7-((R)-3-(4-fluorophenyl)morpholine-4-carbonyl)-10-hydroxy-7-azaspiro[4.5]decan-10-yl)methyl)pyrimidin-4(3H)-one]
< 0.5 | CN(C)C(=O)c1cn(C[C@]2(O)CCN(C(=O)N3CCOC[C@H]3c3ccccc3)CC2(C)C)c(=O)cc1-c1ccccc1 [Example 283, 1-(((S)-4-Hydroxy-3,3-dimethyl-1-((R)-3-phenylmorpholine-4-carbonyl)piperidin-4-yl)methyl)-N,N-dimethyl-6-oxo-4-phenyl-1,6-dihydropyridine-3-carboxamide]
< 0.5 | Cn1nccc1-c1cc(=O)n(C[C@]2(O)CCN(C(=O)N3CCOC[C@H]3c3ccc(F)cc3)CC23CCCC3)cn1 [Example 284, 3-(((S)-7-((R)-3-(4-Fluorophenyl)morpholine-4-carbonyl)-10-hydroxy-7-azaspiro[4.5]decan-10-yl)methyl)-6-(1-methyl-1H-pyrazol-5-yl)pyrimidin-4(3H)-one]
< 0.5 | Cn1cc(-c2cc(=O)n(C[C@]3(O)CCN(C(=O)N4CCOC[C@H]4c4ccc(F)cc4)CC34CCCC4)cn2)cn1 [Example 285, 3-(((S)-7-((R)-3-(4-Fluorophenyl)morpholine-4-carbonyl)-10-hydroxy-7-azaspiro[4.5]decan-10-yl)methyl)-6-(1-methyl-1H-pyrazol-4-yl)pyrimidin-4(3H)-one]
< 0.5 | CC1(C)CN(C(=O)N2CCOC[C@H]2c2ccccc2)CC[C@@]1(O)Cn1ccc(-c2ccccc2)cc1=O [Example 286]
< 0.5 | O=C(N1CC[C@@](O)(Cn2ccc(-c3ccccc3)cc2=O)C2(CCCC2)C1)N1CCNC[C@H]1c1ccccc1 [Example 287, 1-(((S)-10-Hydroxy-7-((R)-2-phenylpiperazine-1-carbonyl)-7-azaspiro[4.5]decan-10-yl)methyl)-4-phenylpyridin-2(1H)-one]
